From ChEMBL document CHEMBL1151614, “Microbial transformations of natural antitumor agents, 25. Conversions of 3-ketoaphidicolin” (1984) come the findings set out here.

Converted amounts (≈) assume the structure as drawn.

For this experiment, the system named is P388. In words: In vivo antitumor activity against mouse P388 cells. Type of experiment: functional.
`C[C@@H]1C(=O)CC[C@@]2(C)[C@H]1CC[C@H]1C[C@@H]3C[C@@]12CC[C@]3(O)CO` registered an ED50 of 12 µg/mL (≈ 39.2 µM).
As for `C[C@@]1(CO)[C@H](O)CC[C@@]2(C)[C@H]1[C@H](O)C[C@H]1C[C@@H]3C[C@@]12CC[C@]3(O)CO`, the figure is 18 µg/mL (≈ 50.8 µM).
As for `C[C@]12CCC(=O)[C@@](C)(CO)[C@@H]1[C@H](O)C[C@H]1C[C@@H]3C[C@@]12CC[C@]3(O)CO`, the figure is 100 µg/mL (≈ 284 µM); as for `C[C@@]1(CO)[C@@H](O)CC[C@@]2(C)[C@H]1CC[C@H]1C[C@@H]3C[C@@]12CC[C@]3(O)CO`, 13 µg/mL (≈ 38.4 µM); as for `C[C@]12CCC(=O)[C@@](C)(CO)[C@@H]1CC[C@H]1C[C@@H]3C[C@@]12CC[C@]3(O)CO`, 2.4 µg/mL (≈ 7.13 µM).
The compound `C[C@@]1(C(=O)O)[C@H](O)CC[C@@]2(C)[C@H]1CC[C@H]1C[C@@H]3C[C@@]12CC[C@]3(O)CO` displayed an ED50 of 2.2 µg/mL (≈ 6.24 µM).
Next, `C[C@@]1(CO)[C@H](O)CC[C@@]2(C)[C@H]1CC[C@H]1C[C@@H]3C[C@@]12CC[C@]3(O)CO` [APHIDICOLIN]: 0.13 µg/mL (≈ 0.384 µM).
